This note sets out measurements from ChEMBL document CHEMBL1134913, “Novel substituted 4-aminomethylpiperidines as potent and selective human beta3-agonists. Part 1: aryloxypropanolaminomethylpiperidines” (Bioorg Med Chem Lett, 2002).

Assay [1] deals with T1, Beta-1 adrenergic receptor (Homo sapiens, UniProt P08588). As to the kind of experiment: In vitro agonist activity measured by increase in cAMP levels in chinese hamster ovary cells (CHO) cells expressing human Beta-1 adrenergic receptor. The class given is functional, cell-based. (cAMP levels reflect the balance of adenylyl cyclase and phosphodiesterase activity.)
Target sequence in this assay (P08588 whole entry): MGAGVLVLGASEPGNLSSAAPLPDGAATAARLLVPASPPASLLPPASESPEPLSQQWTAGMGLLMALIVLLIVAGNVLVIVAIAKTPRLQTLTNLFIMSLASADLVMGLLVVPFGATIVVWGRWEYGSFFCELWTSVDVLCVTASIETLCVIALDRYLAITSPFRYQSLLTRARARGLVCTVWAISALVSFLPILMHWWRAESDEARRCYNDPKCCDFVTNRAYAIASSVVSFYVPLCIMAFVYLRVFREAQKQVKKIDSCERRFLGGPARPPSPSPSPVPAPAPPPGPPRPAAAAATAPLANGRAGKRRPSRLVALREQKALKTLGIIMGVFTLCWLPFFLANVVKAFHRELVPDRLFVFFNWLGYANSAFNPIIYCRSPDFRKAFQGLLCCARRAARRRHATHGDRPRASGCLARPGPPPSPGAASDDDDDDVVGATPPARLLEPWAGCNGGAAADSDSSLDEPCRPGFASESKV
Assay [2] concerns the target T2, Beta-3 adrenergic receptor (Homo sapiens, UniProt P13945). As to the kind of experiment: In vitro agonist activity by increase in cAMP levels in chinese hamster ovary cells (CHO) cells stimulated by human Beta-3 adrenergic receptor was determined; IA is inactive. The class given is functional, cell-based.
Target sequence in this assay (P13945 whole entry): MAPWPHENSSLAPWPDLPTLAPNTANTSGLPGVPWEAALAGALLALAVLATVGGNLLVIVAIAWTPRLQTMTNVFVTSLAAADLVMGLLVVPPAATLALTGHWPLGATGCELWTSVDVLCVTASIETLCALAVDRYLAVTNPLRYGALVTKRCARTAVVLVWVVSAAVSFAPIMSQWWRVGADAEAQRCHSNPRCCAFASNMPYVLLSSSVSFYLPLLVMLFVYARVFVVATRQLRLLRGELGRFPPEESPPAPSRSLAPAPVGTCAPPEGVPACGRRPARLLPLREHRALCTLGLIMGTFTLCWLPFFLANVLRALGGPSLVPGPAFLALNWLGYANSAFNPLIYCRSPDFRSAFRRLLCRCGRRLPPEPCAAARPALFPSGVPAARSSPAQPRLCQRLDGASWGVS
Assay [3] addresses T2, Beta-3 adrenergic receptor. Nature of the assay: Intrinsic activity (IA) for Beta-3 adrenergic receptor agonism was determined as the maximal response with respect to the maximal response of isoproterenol at […].
Target sequence in this assay (P13945 whole entry, looked up): as the sequence (P13945 whole entry) above
The target of assay [4] is T1, Beta-1 adrenergic receptor. As to the kind of experiment: In vitro agonist activity by increase in cAMP levels in chinese hamster ovary cells (CHO) cells stimulated by human Beta-1 Adrenoceptor was determined. It counts as functional, cell-based.
Target sequence in this assay (P08588 whole entry): as the sequence (P08588 whole entry) above
Assay [5] addresses T2, Beta-3 adrenergic receptor. As to the kind of experiment: Intrinsic activity (IA) for Beta-3 adrenoceptor agonism was determined as the maximal response with respect to the maximal response of isoproterenol at […]. The class given is functional.
Target sequence in this assay (P13945 whole entry, looked up): as the sequence (P13945 whole entry) above
Assay [6] deals with T1, Beta-1 adrenergic receptor. As to the kind of experiment: Intrinsic activity (IA) for Beta-1 adrenoceptor agonism was determined as the maximal response with respect to the maximal response of isoproterenol at […]. It counts as functional.
Target sequence in this assay (P08588 whole entry, looked up): as the sequence (P08588 whole entry) above
Assay [7] has as its target T2, Beta-3 adrenergic receptor. As to the kind of experiment: In vitro agonist activity by increase in cAMP levels in chinese hamster ovary cells (CHO) cells stimulated by human Beta-3 Adrenoceptor was determined. It counts as functional, cell-based.
Target sequence in this assay (P13945 whole entry): as the sequence (P13945 whole entry) above
Assay [8] addresses T3, Beta-2 adrenergic receptor (Homo sapiens, UniProt P07550). Nature of the assay: In vitro agonist activity by increase in cAMP levels in chinese hamster ovary cells (CHO) cells stimulated by human Beta-2 Adrenoceptor. It counts as functional, cell-based.
The target in assay [9] is T3, Beta-2 adrenergic receptor. As to the kind of experiment: In vitro agonist activity measured by increase in cAMP levels in chinese hamster ovary cells (CHO) cells expressing human Beta-2 adrenergic receptor. The class given is functional, cell-based.
Assay [10] concerns the target T3, Beta-2 adrenergic receptor. As to the kind of experiment: (§1) Compound was tested for the antagonistic activity against Beta-2 adrenergic receptor.
The subject of another assay is Mus musculus. Nature of the assay: In vivo activity of compound with an increase in thermogenesis in the Beta 3 transgenic mice at an ip dose of 10 mg/kg was determined. It counts as functional. The note with it: route intraperitoneal.
Assay [11] addresses T1, Beta-1 adrenergic receptor. Nature of the assay: Compound was tested for the antagonistic activity against Beta-1 adrenergic receptor. The class given is functional.
Target sequence in this assay (P08588 whole entry): as the sequence (P08588 whole entry) above
Assay [12] deals with T3, Beta-2 adrenergic receptor. The assay is described as §1. It counts as functional.

T3 sequence (P07550 whole entry): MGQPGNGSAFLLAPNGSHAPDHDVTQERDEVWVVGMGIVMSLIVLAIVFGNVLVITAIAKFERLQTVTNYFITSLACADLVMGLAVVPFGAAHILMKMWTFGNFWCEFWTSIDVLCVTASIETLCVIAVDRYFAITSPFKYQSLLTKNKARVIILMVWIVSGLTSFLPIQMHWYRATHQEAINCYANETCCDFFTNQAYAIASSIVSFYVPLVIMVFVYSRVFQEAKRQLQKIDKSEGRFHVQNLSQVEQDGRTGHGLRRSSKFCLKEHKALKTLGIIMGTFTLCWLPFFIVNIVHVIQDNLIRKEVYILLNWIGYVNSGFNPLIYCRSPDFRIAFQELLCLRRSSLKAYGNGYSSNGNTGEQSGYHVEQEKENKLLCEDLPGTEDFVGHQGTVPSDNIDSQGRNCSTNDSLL

For orientation: EC50 means the concentration giving half of the maximal effect. High values mean a less potent agent, low ones a more potent agent. In turn, `O=C(NCCCc1cccs1)Nc1ccc(S(=O)(=O)N2CCC(CNC[C@H](O)COc3ccc(O)cc3)CC2)cc1` registered an EC50 in assay [1] of 2050 nM.
For the compound `O[C@@H](CNCC1CCN(c2ncccc2C(F)(F)F)CC1)COc1cccc2[nH]c3ccccc3c12`, the EC50 result in assay [2] and in [3] was “Not Active” throughout.
In [1], `O=C(NCc1cc(F)ccc1F)Nc1ccc(S(=O)(=O)N2CCC(CNC[C@H](O)COc3ccc(O)cc3)CC2)cc1` displayed a 50% effective concentration (EC50) of 1010 nM.
`O=C(O)c1cccc(NC(=O)N2CCC(CNC[C@H](O)COc3cccc4[nH]c5ccccc5c34)CC2)c1`: the concentration giving a half-maximal response (EC50) in [4] is more than 1000 nM; in assay [7], 70 nM; in assay [8], more than 1000 nM. In addition, the Intrinsic activity is 0.29 in [5] and 0.05 in [6].
For the compound `O[C@@H](CNCC1CCN(CCC(F)(F)F)CC1)COc1cccc2[nH]c3ccccc3c12`, the half-maximal effective concentration (EC50) in assay [9] is more than 1000 nM; in [1], 417 nM.
As to `CCCCCCNC(=O)Nc1ccc(S(=O)(=O)N2CCC(CNC[C@H](O)COc3cccc4[nH]c5ccccc5c34)CC2)cc1`, the concentration giving a half-maximal response (EC50) in assay [9] and in assay [1] was more than 1000 nM in each case.
On to `O=C(Nc1ccc(S(=O)(=O)N2CCC(CNC[C@H](O)COc3ccc(O)cc3)CC2)cc1)NC1CCCCC1`, for which the EC50 in assay [1] was 1020 nM.
As usually defined, the IC50 is the concentration that gives 50% inhibition. Read a low IC50 as greater potency. In the case of `CCCCCCCCNC(=O)Nc1ccc(S(=O)(=O)N2CCC(CNC[C@H](O)COc3ccc(O)cc3)CC2)cc1`, the 50% inhibitory concentration (IC50) in assay [10] was 4 nM; in assay [11] it was 27 nM. For the same compound, the Thermogenesis with Mus musculus turned out to be 30. The same compound returned a concentration giving a half-maximal response (EC50) in assay [1] of 887 nM.
For the compound `CCCCCCCCNC(=O)Nc1ccc(S(=O)(=O)N2CCC(CNC[C@H](O)COc3ccc(O)c4c3CCC(=O)N4)CC2)cc1`, the Intrinsic activity in assay [6] came out at 0.63. For the same compound, the EC50 is 680 nM in assay [9] and 390 nM in assay [1].
As for `CCCCCCN1CCC(CNC[C@H](O)COc2cccc3[nH]c4ccccc4c23)CC1`, the EC50 in assay [9] and in assay [1] was more than 1000 nM throughout.
On to `CCCCCCNC(=O)Nc1ccc(S(=O)(=O)N2CCC(CNC[C@H](O)COc3ccc(O)cc3)CC2)cc1`, for which the EC50 in [1] was 10900 nM.
As for `O=C(Nc1ccccc1)Nc1ccc(S(=O)(=O)N2CCC(CNC[C@H](O)COc3ccc(O)cc3)CC2)cc1`, the EC50 in assay [1] is 489 nM.
In assay [1], `O=C(NCc1cc(F)ccc1F)Nc1ccc(S(=O)(=O)N2CCC(CNC[C@H](O)COc3ccc(O)c(F)c3)CC2)cc1` returned a concentration giving a half-maximal response (EC50) of 525 nM.
In the assay with Mus musculus, `CS(=O)(=O)Nc1cc(OC[C@@H](O)CNCC2CCN(S(=O)(=O)c3ccc(NC(=O)NCc4cc(F)ccc4F)cc3)CC2)ccc1O` had a Thermogenesis of 18. The IC50 in assay [12] amounted to 268 nM; in assay [11] it was 6160 nM. In assay [6], this compound displayed an Intrinsic activity of 0.49. The 50% effective concentration (EC50) in assay [9] was 454 nM; in assay [1] it was 353 nM.
